In the METLIN SMRT retention time set (Domingo-Almenara et al. 2019) one finds RP-LC retention time data, which are given here for 80 compounds.

The series can be described thus: gradient 5% acetonitrile 3 min, to 50% in 2 min, to 85% in 15 min, held 3 min, 100 µL/min. As to conditions: column: Zorbax Extend-C18 2.1 x 50 mm; eluents: water / acetonitrile, 0.1% formic acid. In a few lines: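 In both positive and negative ionization mode, a quadrupole time-of-flight mass spectrometer coupled to HPLC analyzed pure standards run in mixtures of ~100 molecules. The Zorbax Extend-C18 column (2.1 × 50 mm, 1.8 μm) was operated at 100 μL/min with water and acetonitrile, each containing 0.1% formic acid. The dead volume was 40 μL and the dwell volume 900 μL. Retention time came from adduct peaks that were computationally picked and individually inspected by hand.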
The compound `O=C(Nc1cccc(F)c1)N1CCC(N2CCN(Cc3cccc(F)c3)C(=O)C2=O)CC1` yielded an RP-LC retention time of 755 s.
Then `Cc1cc(=O)n(CC(=O)N2CCc3ccccc32)c(N)n1`, with 608 s.
The result for `CC(C)C(=O)Nc1ccc(CCc2nc3ccc(C(=O)NC4CC4)cc3[nH]2)cc1` reads 594 s.
Then `CCn1cc(S(=O)(=O)N2CCC(c3noc(-c4ccncc4)n3)C2)cn1` (stereo not given), with 707 s; and `COc1ccc(CNC(=O)C2CCN(c3ncnc4c3oc3ccccc34)CC2)c(OC)c1`, with 752 s.
For `O=C(Nc1cccc(Cl)c1)N1CCc2nc(-c3ccccc3)ncc2C1`, the RP-LC retention time was 997 s.
The result for `O=C(NCCc1csc(-c2ccccc2)n1)[C@H]1CCCN1C(=O)c1ccco1` reads 747 s.
The result for `O=C(Cc1ccc(Cl)cc1)N1CCc2cc(-c3ccno3)ccc21` reads 1030 s.
The result for `CCCn1cc(S(=O)(=O)NCc2ccc(C)cc2)c2cccnc21` reads 951 s.
For `Cn1ncc(N2CCCC(C(=O)NC3CCCCCC3)C2)cc1=O` (stereo not given), the RP-LC retention time came out at 726 s.
The result for `O=C(NCc1cccs1)c1ccc(-c2nccnc2N2CCCCC2)cc1` reads 968 s.
In turn, `O=C1COc2ccccc2N1Cc1nc(-c2cccc(F)c2)no1` came in with an RP-LC retention time of 990 s.
The result for `CCn1ccc2sc(C)c(C(=O)NCc3ccc4c(c3)OCO4)c2c1=O` reads 769 s.
In the case of `COc1ccc(NC(=O)c2nc(N3CCC(C)CC3)c3cnn(C)c3n2)cc1`, the RP-LC retention time is 966 s.
On to `Cc1cccc(NC(=O)NCC(c2cccnc2)c2cn(C)c3ccccc23)c1C` (stereo not given), for which the RP-LC retention time was determined as 719 s.
The result for `COc1cc(Cl)c(NS(=O)(=O)c2cc(-c3cc(C(F)(F)F)[nH]n3)sc2C)c(OC)c1` reads 1030 s.
The result for `COCc1cnc2c(c1SCc1ccc(C)cc1)c(=O)n(C)c(=O)n2C` reads 1060 s.
In the case of `COc1ccccc1-c1nocc1CCC(=O)O`, the RP-LC retention time was found to be 686 s.
`COc1ccc(OC)c(NC(=O)C2CCN(S(=O)(=O)c3c(C)nn(-c4ccccc4)c3C)CC2)c1`: the RP-LC retention time was found to be 974 s.
Then `O=C(c1ccc2ccnc(N3CCN(c4ccc(Cl)cc4)CC3)c2c1)N1CCC2(CC1)OCCO2`, with 791 s; and `COc1ccccc1NC(=O)CSc1ccc(N2CCCC(C(=O)NC3CC3)C2)nn1` (stereo not given), with 618 s.
Turning to `CC1CCN(c2nn(CC(=O)Nc3ccc4c(c3)OCCO4)c(=O)c3ccccc23)CC1`, the RP-LC retention time amounted to 1060 s.
The result for `CCCCN(Cc1ccco1)C(=O)Cn1nc(Cc2cccnc2)c2ccccc2c1=O` reads 701 s.
Then `CC1CCn2c(nc3cc(C(=O)N4CCN(c5ncccn5)CC4)ccc32)C1` (stereo not given), with 593 s; and `Cc1ccc(F)cc1S(=O)(=O)N1CCc2c(c(-c3nnc(-c4ccccc4)o3)nn2C)C1`, with 846 s.
Then `CCOC(=O)c1ccc(NC(=O)Cn2c(N3CCOCC3)nc(CC)cc2=O)cc1`, with 794 s; and `COc1ccccc1CC(=O)N1CCC(Nc2ncnc3c2CCC3)C1` (stereo not given), with 570 s; and `Cc1nnc(-c2cc3ccccc3n2Cc2ccccc2Cl)o1`, with 1100 s.
Compound `Cc1nnc(C2CCCN(C(=O)c3cc(C(F)(F)F)cc(C(F)(F)F)c3)C2)s1` (stereo not given) displayed an RP-LC retention time of 823 s.
Then `CCOc1ccc(-c2[nH]ncc2CNS(=O)(=O)c2ccc(C(F)(F)F)cc2)cc1`, with 918 s.
In turn, `O=C1CC(c2nc(-c3ccc(C(F)(F)F)cc3)no2)CN1c1ccc2c(c1)OCO2` (stereo not given) yielded an RP-LC retention time of 1070 s.
Turning to `COc1cc(Cl)c(NC(=O)C2CCCN(c3nc4ccccc4nc3OC)C2)c(OC)c1` (stereo not given), the RP-LC retention time came to 1250 s.
The result for `COCc1nc2cccnc2n1C1CCN(C(=O)Nc2ccc3c(c2)OCO3)CC1` reads 658 s.
The result for `CCOC(=O)c1nc(N(CCC(=O)OC)c2ccccc2)c2ccccc2n1` reads 919 s; that for `O=C(c1csc(N2CCCC2)n1)N1CCCC1`, 657 s.
For `O=C(NCCc1csc(-c2ccccc2)n1)c1cccs1`, the RP-LC retention time came out at 860 s.
On to `Cc1ccc(C(=O)N2C[C@H]3C[C@H](C2)[C@H]2CCCC(=O)N2C3)s1`, for which the RP-LC retention time came to 646 s.
For the compound `Cc1ccccc1Nc1nc(N)c2c(F)cccc2n1`, the RP-LC retention time came to 610 s.
Consider `O=C1NC2(CCN(C(=O)Nc3ccc(F)cc3)CC2)N=C1c1cccc(Cl)c1`, for which the RP-LC retention time turned out to be 872 s.
Then `Cc1oc(-c2ccc(NC(=O)Cc3ccc(F)cc3)cc2)nc1Cn1cccn1`, with 866 s; and `O=C(CSc1nc2ncccc2n2cccc12)N1CCN(c2ccccn2)CC1`, with 592 s.
The result for `COc1ccc(CNC(=O)C2(C)Oc3cccnc3N(C(C)C)C2=O)cc1OC` (stereo not given) reads 836 s; that for `Cc1cccc(C(=O)NC2CCN(c3nnc4ccccn34)CC2)c1`, 645 s; that for `Cc1ccc(NC(=O)N2CCN(CCn3c(C(C)C)nc4cccnc43)CC2)c(C)c1`, 621 s.
Then `O=c1ccc(-c2cccc(Cl)c2)nn1CCc1nc(-c2ccccc2)no1`, with 1030 s; and `CCOc1cc(-c2nc(C3CC(=O)N(c4ccc(F)c(Cl)c4)C3)no2)cc(OCC)c1OCC` (stereo not given), with 1290 s.
In the case of `Cc1nn(-c2cc(N3CCOCC3)ncn2)c(C)c1CCC(=O)NCCc1ccco1`, the RP-LC retention time was determined as 734 s.
In the case of `CCN1CCN(c2ncc(C(=O)OC)c3ccccc23)CC1`, the RP-LC retention time was determined as 604 s.
The result for `Cc1ccc(-c2nnc(-c3cccc(S(=O)(=O)N4CCCC4)c3)o2)cc1` reads 1010 s; that for `O=C(CN1C(=O)CCS(=O)(=O)c2ccccc21)Nc1cccc(C(F)(F)F)c1`, 849 s; that for `COc1cccc(-c2noc(CN3C(=O)COc4ccccc43)n2)c1OC`, 908 s.
Then `CSc1ccccc1CN1CCC(CNC(=O)C(=O)NCc2cccs2)CC1`, with 595 s; and `CC(C)(C)n1nc(C2CC2)cc1NC(=O)Nc1ccccc1`, with 889 s; and `O=C(c1cccnc1)N1CCCCC1c1nncn1Cc1ccccc1` (stereo not given), with 620 s.
The result for `O=C(N[C@H]1C[C@@H]2C[C@H]1CN2C(=O)Nc1ccc2c(c1)CCC2)c1ccccc1` reads 829 s; that for `Cc1ccc(Nc2nccc(N(C)c3ccc4c(C)n(C)nc4c3)n2)cc1S(N)(=O)=O`, 685 s; that for `COc1ccc(NC(=O)N2CCCn3nc(-c4cccc(Cl)c4)cc3C2)cc1F`, 945 s.
For `Cc1ccc2c(c1)OCC(=O)N2Cc1nc(-c2cccc(F)c2)no1`, the RP-LC retention time is 1070 s.
The result for `CCOC(=O)c1noc2ncnc(Nc3ccccc3)c12` reads 1000 s; that for `Cc1cc(C)cc(N2CCn3c2nc2c3c(=O)n(CC(=O)O)c(=O)n2C)c1`, 784 s.
As to `O=C(Nc1cccc(OCc2nnc(-c3ccccc3)o2)c1)c1ccsc1`, the RP-LC retention time was found to be 914 s.
In the case of `Cn1ncc2c(N3CCCC3)nc(C(=O)NCc3ccc(Cl)cc3)nc21`, the RP-LC retention time stood at 858 s.
The result for `Cc1nc2ccc(C(=O)N(C)C)cc2nc1C` reads 618 s; that for `COc1ccc(-c2csc3ncnc(SCc4c(C)noc4C)c23)cc1`, 1030 s; that for `O=C(NCCn1c(=O)n(Cc2ccc(F)cc2)c2cccnc21)c1ccoc1`, 745 s.
The result for `Cc1cccc(NC(=O)N2CCCC2c2nc(-c3cccc(Cl)c3)no2)c1` (stereo not given) reads 1100 s.
The result for `CCOC(=O)C1CCN(C(=O)C2CCN(c3nccc(C)n3)CC2)CC1` reads 662 s.
Consider `Cc1ccc(S(=O)(=O)N2CCC(n3c(-c4ccoc4)nc4cccnc43)C2)cc1` (stereo not given), for which the RP-LC retention time came out at 863 s.
`CCn1ccc(C(=O)NC2CCCC2)n1` displayed an RP-LC retention time of 709 s.
Then `COc1ccc(-c2cn3c(CC(=O)Nc4ccc(F)cc4)csc3n2)cc1OC`, with 729 s; and `CCNC(=O)c1n[nH]c2c1CC(C)CC2` (stereo not given), with 685 s.
Then `CC1CCC(NC(=O)C2CCCN2S(=O)(=O)c2cc3c(cc2Cl)NC(=O)CO3)CC1` (stereo not given), with 840 s; and `Cc1ccc(C(O)CN2CCN(c3ccccn3)CC2)cc1` (stereo not given), with 550 s; and `CC1CCN(CCCC(=O)c2ccc(F)cc2)CC1`, with 685 s.
Then `NS(=O)(=O)c1ccc(NC(=O)c2csc3c2CCCC3)cc1`, with 769 s.
Regarding `CCS(=O)(=O)c1nc2ccc(NS(=O)(=O)c3ccccc3)cc2s1`, the RP-LC retention time was 838 s.
The result for `CN(Cc1ccccc1)C(=O)c1cc2cccnc2n(Cc2ccccc2)c1=O` reads 950 s; that for `Cc1cc(C)cc(Oc2cc(N3CCC(C(=O)NCCc4ccccc4)CC3)ncn2)c1`, 986 s; that for `CCc1cccc(C)c1N(C(=O)Cn1c(CC)nc2ccccc21)C(C)COC` (stereo not given), 776 s.
The result for `O=C(Cc1cccc(F)c1)N1CCC2(CC1)Nc1ccccc1-n1cccc12` reads 998 s.
